Residue numbers refer to the chain shown, from its start. Names and notes keep the numbering of the source.
How the values were obtained:
[1] = system: MdcY-PMdcL based biosensor; assay: MdcY malonate transcription factor biosensor using exogenously added malonate; format: cell-based, E. coli
Excerpt: S14 employs the malonate responsive transcription factor, MdcY (SEQ ID NO:3), and the MdcY-responsive promoter, PMdcL (SEQ ID NO:6) derived from Acinetobacter calcoaceticus. This biosensor of this disclosure was constructed using an E. coli vector backbone with ampicillin resistance marker and ColE1 origin of replication; the tetA tetracycline resistance gene was placed under control of the PMdcL promoter.
Nucleic acids encoding for MdcY and TetA gene products, PMdcL promoter, and the E. coli vector backbone were synthetically produced; the biosensor vectors were than constructed by PCR amplification of the nucleic acids and subsequent cloning into the E. coli vector backbone. The plasmids were transformed into chemically competent E. coli DH10b and the resulting clones plated on LB agar plates containing 50 μg/ml carbenicillin (Cb^50). Individual colonies were grown overnight in 3 ml LB medium supplemented with antibiotic and the sequences of the purified plasmid were verified.
E. coli strain K12 was co-transformed with plasmids S14 and individual colonies isolated from LB agar plates (Cb^50). Colonies were grown in 25 ml LB broth (Cb^50) until reaching an optical density at 600 nm (OD600) of approximately 0.50, at which point in time cell stocks were prepared and stored at −80° C.; cell stocks were 0.5 ml cell culture and 0.5 ml of a 50% v/v glycerol solution.
An aliquot of biosensor cell stock was thawed and used to inoculate 50 ml of LB medium (Cb^50) in a 250 ml, baffled Erlenmeyer flask. Cultures were incubated for 2 hours at 37° C.; subsequently, 0.6 ml biosensor culture was added to 48-well plates prepared with 2.3 ml LB medium)(Cb^50) supplemented with tetracycline and malonate acid at the desired concentration (n=4). Plates were than grown at 30° C. on an orbital titer plate shaker. Following 12 hours incubation, 200 μl samples were taken for OD600 measurement.

[2] = Malonic acid solubility in water; format: physicochemical
[3] = system: S. cerevisiae BY4741 yeast cells; assay: Production of malonate in yeast expressing various malonyl-CoA hydrolases; format: cell-based; details: S. cerevisiae BY4741, SD-Ura, 30° C., 140 h of fermentation; mean±S.D.; n=4
Excerpt: Nucleic acids encoding various malonyl-CoA hydrolases provided by this disclosure [EHD3 (E124S), B9IZZ9-1, F0PNG8-1, H0NHL7, C3ALI3-1, Q81DR3-1, A4XS22-1, E2XN63-1, A5W8H3-1 and F6AA82-2] were amplified by PCR from plasmids using the primers listed in Table 4. The purified PCR products were cloned downstream of the TEF1 promoter and upstream of the CYC1 terminator in a shuttle vector containing an ampicillin resistance cassette, a PMB1 origin of replication, a CEN/ARS origin of replication and a URA3 selection marker. The resulting plasmids were transformed into E. coli competent host cells and selected on LB agar plates containing Cb^50. Following overnight incubation at 37° C., individual colonies were inoculated in 2 ml of LB-Cb^50 in a 48-well plate and grown for 5 h at 37° C. on a shaker before the plasmids were isolated and confirmed by sequencing.
S. cerevisiae BY4741 yeast cells were used as host for the vectors for expression of the various malonyl-CoA hydrolases. The plasmid vectors were individually introduced into the yeast host cells using standard procedures. […]
An individual colony for each transformant picked was inoculated into a 50 μl aliquot of SD-Ura medium in a 96-well plate. […] No malonate was detected in samples consisting of medium not inoculated with yeast cells. […]

[4] = system: E. coli strain K12; assay: In vivo production of malonate in E. coli using S. cerevisiae EHD3 malonyl-CoA hydrolases; format: cell-based
Procedure: This example describes the host cells and culture conditions resulting in the in vivo production of malonate using a heterologous EHD3 malonyl-CoA hydrolase in an E. coli host cell. E. coli strain K12 was transformed with vectors containing wild-type EHD3, EHD3 (E124A), […], EHD3 (E124S), EHD3 (E124A, E308V) or an empty vector negative control. Transformants were streaked on LB agar plates (Cm^50, 2% glucose). Following overnight growth at 37° C., individual colonies were inoculated into 3 ml LB (Cm^50, 2% glucose) in a 48-well plate. Cultures were incubated on a plate shaker at 37° C. for 6 hours, at which point each culture was inoculated 1% v/v into M9 minimal medium supplemented with Cm^50 and a mixed carbon source (0.5% glycerol, 0.05% glucose, 0.2% lactose) in a 48-well plate. Cultures were incubated on a plate shaker at 30° C., and a 500 μL sample of the fermentation broth was removed for analysis after 48 hours incubation.
Samples were centrifuged (×6000 g, 1 min) and the supernatant analyzed for malonate quantification. Chemical standards were prepared in […] of water. The separation of malonate was conducted on a Shimadzu Prominence XR UPLC connected to a refractive index detector and UV detector monitoring 210 nm. Product separation was performed on a Bio-Rad Fermentation Monitoring column. The UPLC was programmed to run isocratically using 5 mM H2504 as the eluant with a flow rate of 600 μL per minute. 10 μL were injected per sample, and the sample plate temperature was held at 4° C. Malonate standards began eluting at […]. […] Malonate concentrations (mg/1) were calculated by comparison to a standard curve prepared from authentic malonate.

[5] = system: S. cerevisiae; assay: Production of malonate in yeast expressing engineered FabD malonyl CoA:ACP transacylase; format: cell-based
Excerpt: In this example, FabD from E. coli, a malonyl CoA:ACP transacylase (EC 2.3.1.39) having one or more of the following amino acid changes at the indicated positions: C92, H201, N201, D117, E117, N117, Y117, G117, H117, Q11, D11, Ell, N11, Y11, G11, H11, A93, V93, I93, F93, S93, G93 was employed as a malonyl-CoA hydrolase. The nucleic acid encoding E. coli FabD was PCR amplified from E. coli strain K12 using primer F1 (5′-[…]-3′) (SEQ ID NO: 43) and F2 (5′-[…]-3′) (SEQ ID NO: 44). The amplified gene was then mutated using standard methods and inserted into a shuttle expression plasmid under the control of the TEF1 promoter and upstream of the CYC1 terminator. This vector contains an ampicillin resistance cassette, a PMB1 origin of replication, a CEN/ARS origin of replication, and a URA3 selection marker. The individual mutational combinations assayed are listed with the results below.
Individual colonies were inoculated into 1 ml of yeast fermentation media comprising 5 g/L ammonium sulfate, 1 g/L monopotassium phosphate, 0.5 g/L magnesium sulfate, 0.1 g/L sodium chloride, 0.1 g/L calcium chloride, 2 mg/L inositol, 0.5 mg/L boric acid, 0.4 mg/L calcium pentothenate, 0.4 mg/L niacin, 0.4 mg/L pyridoxine hydrochloride, 0.4 mg/L thiamine HCl, 0.4 mg/L zinc sulfate, 0.4 mg/L manganese sulfate, 0.2 mg/L p-aminobenzoic acid, 0.2 mg/L riboflavin, 0.2 mg/L sodium molybdate, 0.2 mg/L ferric chloride, 0.1 mg/L potassium iodide, 40 μg/L copper sulfate, 2 μg/L folic acid, 2 μg/L biotin, 10 mg/L adenine, 50 mg/L L-arginine HCl, 80 mg/L L-aspartic acid, 20 mg/L L-histidine HCl, 50 mg/L L-isoleucine, 100 mg/L L-leucine, 50 mg/L L-lysine HCl, 20 mg/L methionine, 50 mg/L L-phenylalanine, 100 mg/L L-threonine, 50 mg/L L-tryptophan, 50 mg/L L-tyrosine, and 140 mg/L L-valine (the base media) containing 2% glucose as a carbon source. The cultures were incubated on a shaker at 30° C. for 24 h, and 20 μl of these cultures were used to inoculate production cultures of 2 ml of the same media. The production cultures were covered with a breathable membrane, incubated with shaking at 30° C. and sampled for HPLC analysis of product accumulation after 96 h and 168 h of growth.

[6] = plasmid S14, tetracycline, 12 hours, 30° C.

O=C(O)CC(=O)O [malonic acid, propanedioic acid]
biosensor response ([1]; cultures harboring S14): dose-dependent response | dynamic range (maximum difference in OD600 between fully induced samples and samples absent malonate) [1, 6]: 1.2 OD600 units | exogenously added malonate concentration over which an increase in OD600 was observed [1, 6]: 0.5 to 1 mM | Malonic acid solubility in water ([2]; 5 ° C.): 53.92 % (w/w) | Malonic acid solubility in water ([2]; 10 ° C.): 55.75 % (w/w) | Malonic acid solubility in water ([2]; 15 ° C.): 57.63 % (w/w) | Malonic acid solubility in water ([2]; 20 ° C.): 59.68 % (w/w) | Malonic acid solubility in water ([2]; 25 ° C.): 61.69 % (w/w) | Malonic acid solubility in water ([2]; 30 ° C.): 63.5 % (w/w) | Malonic acid solubility in water ([2]; 35 ° C.): 65.28 % (w/w) | Malonic acid solubility in water ([2]; 40 ° C.): 67.43 % (w/w) | Malonic acid solubility in water ([2]; 45 ° C.): 68.85 % (w/w) | Malonic acid solubility in water ([2]; 50 ° C.): 70.33 % (w/w) | Malonic acid solubility in water ([2]; 55 ° C.): 72.38 % (w/w) | Malonic acid solubility in water ([2]; 60 ° C.): 74.29 % (w/w) | Malonic acid solubility in water ([2]; 65° C.): 75.96 % (w/w) | solubility limit ([2]; 65° C.): 76 % wt/wt

B1: EHD3 (E124S) (protein, UniProt P28817 1-500, looked up, variant E124S)
Small ribosomal subunit …: MLRNTLKCAQLSSKYGFKTTTRTFMTTQPQLNVTDAPPVLFTVQDTARVITLNRPKKLNALNAEMSESMFKTLNEYAKSDTTNLVILKSSNRPRSFCAGGDVATVAIFNFNKEFAKSIKFFTDSYSLNFQIATYLKPIVTFMDGITMGGGVGLSIHTPFRIATENTKWAMPEMDIGFFPDVGSTFALPRIVTLANSNSQMALYLCLTGEVVTGADAYMLGLASHYVSSENLDALQKRLGEISPPFNNDPQSAYFFGMVNESIDEFVSPLPKDYVFKYSNEKLNVIEACFNLSKNGTIEDIMNNLRQYEGSAEGKAFAQEIKTKLLTKSPSSLQIALRLVQENSRDHIESAIKRDLYTAANMCMNQDSLVEFSEATKHKLIDKQRVPYPWTKKEQLFVSQLTSITSPKPSLPMSLLRNTSNVTWTQYPYHSKYQLPTEQEIAAYIEKRTNDDTGAKVTEREVLNHFANVIPSRRGKLGIQSLCKIVCERKCEEVNDGLRWK
Malonate Peak Area [3]: 94,721 ± 8,115 | malonate production relative to wild-type EHD3 ([4]; E. coli K12, 48 hours): significant (p<0.05, t-test) increase | Malonate Concentration ([4]; E. coli K12, M9 minimal medium, 30° C., 48 hours, mean±std dev, n=3): 82.3 ± 7.8 mg/L

B2: FabD S92C/L93V/R117H: engineered E. coli FabD malonyl CoA:ACP transacylase with S92C/L93V/R117H (protein, UniProt P0AAI9 2-309, looked up, variant S92C L93V R117H)
Malonyl CoA-acyl carrier …: TQFAFVFPGQGSQTVGMLADMAASYPIVEETFAEASAALGYDLWALTQQGPAEELNKTWQTQPALLTASVALYRVWQQQGGKAPAMMAGHCVGEYSALVCAGVIDFADAVRLVEMHGKFMQEAVPEGTGAMAAIIGLDDASIAKACEEAAEGQVVSPVNFNSPGQVVIAGHKEAVERAGAACKAAGAKRALPLPVSVPSHCALMKPAADKLAVELAKITFNAPTVPVVNNVDVKCETNGDAIRDALVRQLYNPVQWTKSVEYMAAQGVEHLYEVGPGKVLTGLTKRIVDTLTASALNEPSAMAAALEL
Malonate accumulation ([5]; 96 h of fermentation): 1.01 mM | Malonate accumulation ([5]; 168 h of fermentation): 2.49 mM

B3: FabD L931/R117Y: engineered E. coli FabD malonyl CoA:ACP transacylase variant, printed L931/R117Y (protein, UniProt P0AAI9 2-309, looked up, variant L93I R117Y)
Malonyl CoA-acyl carrier …: B2 Malonyl CoA-acyl carrier … with C91S, V92I, H116Y
Malonate accumulation ([5]; 96 h of fermentation): 1.47 mM | Malonate accumulation ([5]; 168 h of fermentation): 2.48 mM

B4: FabD L93S/R117G: engineered E. coli FabD malonyl CoA:ACP transacylase with L93S/R117G (protein, UniProt P0AAI9 2-309, looked up, variant L93S R117G)
Malonyl CoA-acyl carrier …: B2 Malonyl CoA-acyl carrier … with C91S, V92S, H116G
Malonate accumulation ([5]; 96 h of fermentation): 1.11 mM | Malonate accumulation ([5]; 168 h of fermentation): 2.89 mM

B5: FabD L93I/R117Y: engineered E. coli FabD malonyl CoA:ACP transacylase with L93I/R117Y (protein, UniProt P0AAI9 2-309, looked up, variant L93I R117Y)
Malonyl CoA-acyl carrier …: B2 Malonyl CoA-acyl carrier … with C91S, V92I, H116Y
Malonate accumulation ([5]; 96 h of fermentation): 1.64 mM | Malonate accumulation ([5]; 168 h of fermentation): 3.47 mM
